These results are taken from patent US5385842A, “Anthraquinones as inhibitors of sulfide production from sulfate-reducing bacteria” (E. I. Du Pont de Nemours and Company, priority 1993, dated 1995).

Structures are written as SMILES. Counter-ions that a name gives are not always drawn.

The subject of the test is Desulfovibrio desulfuricans G100A. Kind of test: microbe, parasite or virus in culture. In kind it is cell-based. The settings on record: Desulfovibrio desulfuricans, G100A, read-out: % Inhib. (inhibition of sulfide production).
Usually inhibition stands for how much of the control response was suppressed. On to `O=C1c2ccccc2C(=O)c2ccccc21` [Anthraquinone], for which the inhibition at 10 ppm came out at 37.5%.

With `O=C1c2ccc(S(=O)(=O)O)cc2C(=O)c2cc(S(=O)(=O)O)ccc21` [9,10-Dihydro-9,10-dioxo-2,7-anthracenedisulfonic acid, di Na salt], the inhibition at 30 ppm was 9.1%.

Consider `Nc1cccc2c1C(=O)c1cc(Cl)c(Cl)cc1C2=O` [1-Amino-6,7-dichloroanthraquinone], for which the inhibition at 30 ppm was found to be 22.9%.

As for `O=C1c2ccccc2C(=O)c2c1cccc2-c1cccc2c1C(=O)c1ccccc1C2=O` [1,1'-Bianthraquinone, [1,1'-Bianthracene]-9,9'10,10'-tetrone], the inhibition at 30 ppm was 12.9%.

Regarding `O=C1c2c(Cl)ccc(Cl)c2C(=O)c2c(Cl)ccc(Cl)c21` [1,4,5,8-Tetrachloroanthraquinone], the inhibition at 30 ppm amounted to 50.6%.

Regarding `O=C1c2cc(Cl)c(Cl)cc2C(=O)c2c(O)ccc(O)c21` [6,7-Dichloro-1,4-dihydroxyanthraquinone], the inhibition at 30 ppm was determined as 5.7%.

For `Cc1ccc2c(c1N)C(=O)c1ccccc1C2=O` [Disperse orange 11, 1-Amino-2-methylanthraquinone], the inhibition at 30 ppm was 5.2%.

For the molecule `CCNc1ccc(NCC)c2c1C(=O)c1ccccc1C2=O` [Sudan blue, 1,4-Bis(ethylamino)-9,10-anthracenedione], the inhibition at 30 ppm worked out at 1.3%.

Turning to `O=C1c2ccccc2C(=O)c2c1cc(O)c(O)c2O` [Anthragallol, 1,2,3-trihydroxyanthraquinone], the inhibition at 30 ppm was 2.6%.

With `Nc1ccc2c(c1)C(=O)c1ccc(N)cc1C2=O` [2,6-Diaminoanthraquinone], the inhibition at 10 ppm worked out at 27.2%.

As to `O=C(O)c1ccccc1Nc1cccc2c1C(=O)c1cccc(Nc3ccccc3C(=O)O)c1C2=O` [Acridylic acid, 1,5-Bis(2-carboxyanilino)-9,10-anthracenedione], the inhibition at 10 ppm worked out at 33.5%.

With `Nc1c(S(=O)(=O)O)cc(Nc2ccccc2)c2c1C(=O)c1ccccc1C2=O` [Acid blue 25, 1-Amino-9,10-dihydro-9,10-dioxo-4-(phenylamino)-2-anthracenesulfonic acid, Na salt], the inhibition at 10 ppm is 26%.

Regarding `CNc1ccc(NC)c2c1C(=O)c1ccccc1C2=O` [1,4-Bis(methylamino)-anthraquinone], the inhibition at 30 ppm worked out at 8.6%.

Take `COc1cc(O)c2c(c1)C(=O)c1cc(C)cc(O)c1C2=O` [Physcion, 1,8-Dihydroxy-3-methoxy-6-methyl-9,10-anthracenedione]: the inhibition at 10 ppm amounted to 34.4%.

As for `Nc1cc2c(cc1O)C(=O)c1ccccc1C2=O` [2-Amino-3-hydroxyanthraquinone], the inhibition at 30 ppm is 11.4%.

As for `O=C1c2ccccc2C(=O)c2c1ccc(O[C@@H]1O[C@H](CO[C@@H]3OC[C@@H](O)[C@H](O)[C@H]3O)[C@@H](O)[C@H](O)[C@H]1O)c2O` [Ruberythric acid, 1-Hydroxy-2-[(6-O-β-D-xylopyranosyl-β-D-glucopyranosyl)oxy]-9,10-anthracenedione], the inhibition at 10 ppm was 29.7%.

As for `O=C1c2cccc(Cl)c2C(=O)c2c(Cl)cccc21` [1,8-Dichloroanthraquinone], the inhibition at 30 ppm was found to be 3.9%.

With `Cc1cc2c(cc1Br)C(=O)c1ccccc1C2=O` [2-Bromo-3-methylanthraquinone], the inhibition at 30 ppm came to 26%.

Turning to `Nc1c(S(=O)(=O)O)ccc2c1C(=O)c1ccccc1C2=O` [1-Aminoanthraquinone-2-sulfonic acid, 1-Amino-9,10-dihydro-9,10-dioxo-2-anthracenesulfonic acid], the inhibition at 30 ppm was 37.5%.

For the molecule `CN(C)CCOc1ccc2c(c1)C(=O)c1ccc(OCCN(C)C)cc1C2=O` [Tilorone analog R11,043DA, 2,6-Bis[2-(dimethylamino)ethoxy]-9,10-anthracenedione], the inhibition at 10 ppm turned out to be 98.7%.

Take `O=C1c2ccccc2C(=O)c2c([N+](=O)[O-])ccc(Nc3ccc([N+](=O)[O-])c4c3C(=O)c3ccccc3C4=O)c21` [1,1'-Iminobis(4-nitro-9,10-anthracenedione)]: the inhibition at 30 ppm stood at 5.7%.
